Columns and labels:
5-HT1A sites = biological target: T1, 5-HT1A sites (Rattus norvegicus, UniProt P19327); assay: Radioligand binding vs. [³H]8-OH DPAT in rat cortex membranes
T1 construct: 5% (w/v) homogenized rat cortex; from tissue; host or cells: rat cortex membranes
T1 sequence (P19327 1-422): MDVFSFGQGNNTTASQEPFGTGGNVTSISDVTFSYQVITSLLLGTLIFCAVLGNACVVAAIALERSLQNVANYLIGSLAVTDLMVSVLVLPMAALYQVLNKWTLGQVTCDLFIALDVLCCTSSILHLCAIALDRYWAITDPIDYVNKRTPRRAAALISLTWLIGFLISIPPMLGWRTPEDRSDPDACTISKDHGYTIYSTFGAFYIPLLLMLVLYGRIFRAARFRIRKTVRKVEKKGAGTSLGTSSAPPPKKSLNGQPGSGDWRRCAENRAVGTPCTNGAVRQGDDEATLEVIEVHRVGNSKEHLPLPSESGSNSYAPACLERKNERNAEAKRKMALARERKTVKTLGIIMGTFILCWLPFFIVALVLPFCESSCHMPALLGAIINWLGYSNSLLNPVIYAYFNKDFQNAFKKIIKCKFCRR
Protocol: Binding studies to determine the affinity of both the (R) and (S) enantiomer for 5-HT1A sites were conducted as previously described by Cannon et al., ibid. Rat cortex was homogenized in ice cold solution, centrifuged to isolate the membranes, and then washed. […] Non-specific binding was defined as binding remaining in the presence of 10 µM of 5-HT. […] The results are presented below in the Table together with those obtained in the studies using guinea pig ilea.

guinea pig ileum = biological target: T2, guinea pig ileum (Cavia porcellus, UniProt A0A286Y074); assay: Single shock stimulation of guinea pig ileum: inhibition of longitudinal muscle contractions, or antagonism of the inhibitory action of 8-OH DPAT; conditions: for washings needed to return responses to induced electrical stimulation to control levels: after inhibition of contractions
T2 sequence (A0A286Y074 1-421): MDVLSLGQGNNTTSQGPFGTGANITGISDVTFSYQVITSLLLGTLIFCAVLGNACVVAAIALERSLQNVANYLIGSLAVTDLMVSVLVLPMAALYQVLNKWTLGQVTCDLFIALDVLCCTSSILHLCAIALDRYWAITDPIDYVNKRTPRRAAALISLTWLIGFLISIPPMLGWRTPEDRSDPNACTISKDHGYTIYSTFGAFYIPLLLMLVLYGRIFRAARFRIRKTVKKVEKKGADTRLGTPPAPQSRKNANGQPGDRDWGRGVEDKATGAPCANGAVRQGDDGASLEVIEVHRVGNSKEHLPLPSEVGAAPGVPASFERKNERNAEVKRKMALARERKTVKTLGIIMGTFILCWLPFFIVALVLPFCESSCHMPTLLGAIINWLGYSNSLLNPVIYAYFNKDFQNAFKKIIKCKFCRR
Protocol: Guinea pigs were anaesthetized with 35 mg of pentobarbital Na, administered i.p. and then sacrificed. Two centimeters of ileum, 10 cm from the cecum, was placed in Krebs-Ringer solution, and longitudinal muscle contractions were measured using a Stateham GT-03 force transducer. Contractions were recorded using a Beckman R-611 recorder.

Cc1ccc2c(c1O)-c1cccc3c1[C@H](C2)N(C)CC3.Cl [(S), (S)-11-Hydroxy-10-methylaporphine hydrochloride]
Ki (5-HT1A sites): 39 nM | effect on ileum stimulating properties of nicotine (guinea pig ileum; 1 µM): did not alter | effect on ileum stimulating properties of potassium chloride (guinea pig ileum; 1 µM): did not alter | effect on resting tone of the ileum (guinea pig ileum; 1 µM): did not alter | IC50 (guinea pig ileum; read-out: ED50 for antagonism of inhibition of contraction by 8-OH DPAT, single shock stimulation of guinea pig ileum, concentration of 8-OH-DPAT 0.06 μM): 30 nM | antagonism of inhibition of contractions by the (R)-enantiomer (guinea pig ileum; single shock stimulation of cholinergic neurons): antagonized | Single Shock stimulation of guinea pig ileum ED50 for inhibition of contractions (guinea pig ileum; transmural single shock stimulation (0.1 Hz)): inactive | duration of repeated washings required to re-establish sensitivity of the preparation to the (R)-enantiomer or 8-OH DPAT (guinea pig ileum; washout): 2 to 3 h

CN1C2CCC1CC(OC(=O)C(CO)c1ccccc1)C2 (racemic) [atropine sulphate, reference compound]
effect on contractions induced by transmural single shock stimulation (guinea pig ileum): inhibited

Cc1ccc2c(c1O)-c1cccc3c1[C@@H](C2)N(C)CC3 [(R), (R)-11-hydroxy-10-methylaporphine, reference compound]
Ki (5-HT1A sites): 3.1 nM | washings needed to return responses to induced electrical stimulation to control levels (guinea pig ileum): Two or three | EC50 (guinea pig ileum; read-out: Single Shock stimulation of guinea pig ileum ED50 for inhibition of contractions, transmural single shock stimulation (0.1 Hz)): 50 nM | ED50 for antagonism of inhibition of contraction by 8-OH DPAT (guinea pig ileum; single shock stimulation of guinea pig ileum, concentration of 8-OH-DPAT 0.06 μM): inactive

CCCN(CCC)C1CCc2cccc(O)c2C1 (stereo not drawn) [8-OH DPAT, 8-hydroxy-2-di-n-propylaminotetralin, reference compound]
washings needed to return responses to induced electrical stimulation to control levels (guinea pig ileum): Two or three | inhibition at 0.06 µM (guinea pig ileum; read-out: maximal inhibition of contractions induced by transmural stimulation): ~35%
